Laboratory results published in PubChem BioAssay (NCI).
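Five concentrations, 48 hours, 96-well plates. TGI: concentration producing complete growth inhibition.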

Assays:
Assay in all cases: growth of human tumour cells (NCI), 48 h
[1] = system: SNB-19 CNS
[2] = system: MDA-MB-435
[3] = system: HS 578T breast
[4] = system: MALME-3M melanoma
[5] = system: HT29 colon
[6] = system: NCI-H460 lung
[7] = system: NCI/ADR-RES ovarian
[8] = system: SF-268 CNS
[9] = system: BT-549 breast
[10] = system: EKVX NSCLC
[11] = system: UO-31 renal
[12] = system: KM12 colon
[13] = system: ACHN renal
[14] = system: OVCAR-5 ovarian
[15] = system: SF-539 CNS
[16] = system: SN12C renal
[17] = system: DU-145 prostate
[18] = system: SNB-75 CNS
[19] = system: HCT-116 colon
[20] = system: HOP-92 NSCLC
[21] = system: RPMI-8226 leukemia
[22] = system: UACC-257 melanoma
[23] = system: MDA-N
[24] = system: M14 melanoma
[25] = system: U251 CNS
[26] = system: SF-295 CNS
[27] = system: HOP-62 NSCLC
[28] = system: NCI-H23 lung
[29] = system: SW-620 colon
[30] = system: HCT-15 colon
[31] = system: CAKI-1 renal
[32] = system: SK-MEL-2 melanoma
[33] = system: OVCAR-3 ovarian
[34] = system: T-47D breast
[35] = system: HL-60(TB) leukemia
[36] = system: A549 NSCLC
[37] = system: K-562 leukemia
[38] = system: SR leukemia
[39] = system: LOX IMVI melanoma
[40] = system: UACC-62 melanoma
[41] = system: IGROV1 ovarian
[42] = system: 786-0 renal
[43] = system: NCI-H522 lung
[44] = system: MCF7 breast
[45] = system: RXF 393 renal
[46] = system: OVCAR-8 ovarian
[47] = system: TK-10 renal
[48] = system: SK-OV-3 ovarian
[49] = system: PC-3 prostate
[50] = system: CCRF-CEM leukemia
[51] = system: MOLT-4 leukemia
[52] = system: HCC-2998 colon
[53] = system: COLO 205 colon
[54] = system: MDA-MB-231 breast
[55] = system: SK-MEL-5 melanoma
[56] = system: OVCAR-4 ovarian
[57] = system: NCI-H226 lung
[58] = system: SK-MEL-28 melanoma

Measured: TGI

Cc1cc(C)nc(NS(=O)(=O)c2ccc(NNc3c4ccccc4nc4c(C(=O)Nc5ccc(S(=O)(=O)Nc6cc(C)on6)cc5)cccc34)cc2)n1
63.8 µM: [57]
> 100 µM: [1] | [2] | [3] | [4] | [6] | [7] | [9] | [11] | [12] | [13] | [14] | [15] | [16] | [17] | [19] | [20] | [21] | [22] | [23] | [24] | [26] | [27] | [28] | [29] | [30] | [31] | [34] | [36] | [40] | [41] | [42] | [44] | [45] | [46] | [47] | [48] | [49] | [53] | [55] | [56]
72.8 µM: [38]
63.5 µM: [50]
86 µM: [18]
87.2 µM: [37]
94.4 µM: [54]
62.5 µM: [32]
82.2 µM: [51]
79.2 µM: [25]
82.1 µM: [43]
49.1 µM: [5]
47.2 µM: [33]
81.3 µM: [8]
88.8 µM: [39]
80.6 µM: [35]
50.2 µM: [52]
65.7 µM: [10]

c1cc2cc3c4c5c(cc6ccc7cc8cc9c%10c8c8c7c6c5c8c5c%10c(c1C9N1CCOCCOCCOCCOCCOCC1)c2c45)C3 (centres undefined)
> 100 µM: [1] | [2] | [3] | [4] | [5] | [6] | [7] | [8] | [9] | [10] | [11] | [12] | [13] | [14] | [15] | [16] | [17] | [18] | [19] | [20] | [58] | [21] | [22] | [23] | [24] | [25] | [26] | [27] | [28] | [29] | [30] | [32] | [33] | [34] | [35] | [36] | [37] | [38] | [39] | [40] | [41] | [42] | [43] | [44] | [45] | [46] | [47] | [48] | [49] | [50] | [51] | [52] | [53] | [54] | [55] | [56] | [57]
